Data reported in patent publication US20100179093A1, “Neoropeptide-2-Receptor (Y-2R) Agonists” (priority 2008, published 2010).

Legend:
Format in all cases: cell-based
[1] = target: Y4R (Homo sapiens, UniProt P50391); test: CaFlux Assay (FLIPR), Y4R
[2] = target: T1, hNPY2R (Homo sapiens, UniProt P49146); test: cAMP Agonist Assay, HEK293/hNPY2R cells; design: expressed in transfected cells; host or cells: HEK293/hNPY2R (G418 selection)
T1 sequence (P49146 1-381): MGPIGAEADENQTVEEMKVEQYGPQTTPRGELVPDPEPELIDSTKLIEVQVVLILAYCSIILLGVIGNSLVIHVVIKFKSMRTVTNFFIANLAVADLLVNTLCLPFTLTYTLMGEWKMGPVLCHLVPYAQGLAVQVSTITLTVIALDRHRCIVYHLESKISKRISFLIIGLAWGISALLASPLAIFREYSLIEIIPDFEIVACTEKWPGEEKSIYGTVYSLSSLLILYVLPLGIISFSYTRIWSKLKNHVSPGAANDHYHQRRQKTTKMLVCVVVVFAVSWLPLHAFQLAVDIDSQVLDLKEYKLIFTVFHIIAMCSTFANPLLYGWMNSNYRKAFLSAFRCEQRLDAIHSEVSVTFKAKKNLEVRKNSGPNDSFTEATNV
Method: On the first day, medium was discarded, and the monolayer cells were washed with 10 mL PBS per flask (T225). […] The flask was gently tapped and the cell suspension was pooled. Each flask was rinsed with 10 mL plating medium and centrifuged at 1000 rpm for 5 min. The suspension was pooled and counted. The suspension was resuspended in plating medium at a density of 2.0×10^5 cells/mL for HEK293/hNPY2R. 50 microliters of cells (HEK293/hNPY2R-10,000 cells/well) were transferred into the 384-well plate using Multi-drop dispenser. The plates were incubated at 37° C. overnight. […] The media and reagents were allowed to come to room temperature. Before the dilutions were prepared, the stock solution of stimulating compound in dimethyl sulphoxide (DMSO, Sigma, cat #D2650) was allowed to warm up to 32 C for 5-10 min. […] The cell medium was tapped off with a gentle inversion of the cell plate on a paper towel. 50 μL of stimulation medium was placed per well (each concentration done in four replicates). The plates were incubated at room temperature for 30 min, and the cells were checked under a microscope for toxicity. After 30 minutes of treatment, the stimulation media was discarded and 50 mL/well of Assay Lysis Buffer (provided in the Tropix kit) was added. The plates were incubated for 45 min@37° C. 20 μL of the lysate was transferred from stimulation plates into the pre-coated antibody plates (384-well) from the Tropix kit. 10 μL of AP conjugate and 20 μL of anti-cAMP antibody was added. The plates were incubated at room temperature while shaking for 1 hour. The plates were then washed 5 times with Wash Buffer, 70 μL per well for each wash. The plates were tapped to dry. 30 μL/well of CSPD/Saphire-II RTU substrate/enhancer solution was added and incubated for 45 min @ RT (shake). Signal for 1 sec/well in a Luminometer.

[3] = target: T2, Y5R (Homo sapiens, UniProt Q15761); test: CaFlux Assay (FLIPR), Y5R; settings: for Emax: read-out: Y5R FLIPR, percentage in parentheses under the EC50;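 as to Emax: percent of the maximal response of the positive control agonist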
T2 sequence (Q15761 1-445): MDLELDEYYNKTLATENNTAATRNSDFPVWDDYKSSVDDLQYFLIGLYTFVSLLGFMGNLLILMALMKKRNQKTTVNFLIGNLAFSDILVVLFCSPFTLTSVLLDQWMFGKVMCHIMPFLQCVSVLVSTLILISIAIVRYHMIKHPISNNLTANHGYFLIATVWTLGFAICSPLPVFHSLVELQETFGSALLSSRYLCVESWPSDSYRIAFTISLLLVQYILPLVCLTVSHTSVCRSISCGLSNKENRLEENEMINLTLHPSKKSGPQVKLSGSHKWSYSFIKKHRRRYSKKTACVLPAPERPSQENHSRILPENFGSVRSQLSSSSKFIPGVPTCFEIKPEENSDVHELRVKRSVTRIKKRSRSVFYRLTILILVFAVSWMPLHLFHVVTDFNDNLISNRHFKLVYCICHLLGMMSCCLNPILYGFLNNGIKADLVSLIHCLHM

[4] = target: T1, hNPY2R; test: CaFlux Assay (FLIPR), Y2R; design: expressed in transfected cells; host or cells: HEK-293 stably expressing G protein chimera Gaqi9
Method: Hek-293 cells were stably transfected with the G protein chimera Gaqi9 and the hygromycin-B resistance gene were further transfected with the human NPY2 receptor and G418 antibiotic selection. Following selection in both hygromycin-B and G418, individual clones were assayed for their response to PYY. The transfected cells were cultured in DMEM medium supplemented with 10% fetal bovine serum, 50 μg/mL hygromycin-B 2 mM glutamine, 100 U/mL penicillin, 100 μg/mL streptomycin and 250 μg/mL G418. Cells are harvested with trypsin-EDTA and counted using ViaCount reagent. The cell suspension volume is adjusted to 4.8×10^5 cells/mL with complete growth media. Aliquots of 25 μL are dispensed into 384 well Poly-D Lysine coated black/clear microplates (Falcon) and the microplates were placed in a 37° C. CO2 incubator overnight. Loading Buffer (Calcium-3 Assay Kit, Molecular Devices) was prepared by dissolving the contents of one vial (Express Kit) into 1000 mL Hank's Balanced Salt Solution containing 20 mM HEPES and 5 mM probenecid. Aliquots of 25 μL of diluted dye were dispensed into the cell plates and the plates are then incubated for 1 hour at 37° C. During the incubation, test compounds were prepared at 3.5× the desired concentration in HBSS (20 mM HEPES)/0.05% BSA/1% DMSO and transferred to a 384 well plate for use on FLIPR. After incubation, both the cell and compound plates were brought to the FLIPR and 20 μL of the diluted compounds were transferred to the cell plates by the FLIPR. During the assay, fluorescence readings were taken simultaneously from all 384 wells of the cell plate every 1.5 seconds. Five readings were taken to establish a stable baseline, and then 20 μL of sample was rapidly (30 μL/sec) and simultaneously added to each well of the cell plate. The fluorescence was continuously monitored before, during and after sample addition for a total elapsed time of 100 seconds. Responses (increase in peak fluorescence) in each well following addition were determined. The initial fluorescence reading from each well, prior to ligand stimulation, was used as a zero baseline value for the data from that well. The responses are expressed as % of maximal response of the positive control.

[5] = target: T3, Y1R (Homo sapiens, UniProt P25929); test: CaFlux Assay (FLIPR), Y1R
T3 sequence (P25929 1-384): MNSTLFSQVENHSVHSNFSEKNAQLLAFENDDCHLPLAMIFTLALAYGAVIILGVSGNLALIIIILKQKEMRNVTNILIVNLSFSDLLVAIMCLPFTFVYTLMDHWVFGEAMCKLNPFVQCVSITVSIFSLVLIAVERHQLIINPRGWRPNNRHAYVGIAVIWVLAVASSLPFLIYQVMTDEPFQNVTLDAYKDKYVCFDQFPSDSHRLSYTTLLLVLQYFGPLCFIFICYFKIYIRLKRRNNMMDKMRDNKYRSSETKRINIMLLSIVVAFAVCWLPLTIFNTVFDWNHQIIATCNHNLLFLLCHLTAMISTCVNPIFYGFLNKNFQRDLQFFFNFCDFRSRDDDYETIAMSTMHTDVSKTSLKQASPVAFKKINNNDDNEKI

Chain of Y4R (P50391 whole entry): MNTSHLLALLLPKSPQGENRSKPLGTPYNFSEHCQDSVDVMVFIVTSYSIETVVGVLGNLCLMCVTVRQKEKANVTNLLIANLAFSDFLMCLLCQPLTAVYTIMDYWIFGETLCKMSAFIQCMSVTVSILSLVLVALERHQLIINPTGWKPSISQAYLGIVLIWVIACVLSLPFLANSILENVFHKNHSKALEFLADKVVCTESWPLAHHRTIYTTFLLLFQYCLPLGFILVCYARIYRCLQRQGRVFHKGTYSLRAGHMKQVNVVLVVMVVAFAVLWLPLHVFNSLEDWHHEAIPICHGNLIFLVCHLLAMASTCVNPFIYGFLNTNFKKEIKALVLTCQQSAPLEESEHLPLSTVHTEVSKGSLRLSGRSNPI

CCCCCCCCCCCCCCCC(=O)NCCC(=O)N[C@@H](CCC(=O)NCCCC[C@H](NC(=O)[C@@H](N)[C@@H](C)CC)C(=O)N1CCN(c2ccc3ncn(CC(=O)N[C@@H](CCCNC(=N)N)C(=O)N[C@@H](Cc4c[nH]cn4)C(=O)N[C@@H](Cc4ccc(O)cc4)C(=O)N[C@@H](CC(C)C)C(=O)N[C@@H](CC(N)=O)C(=O)N[C@@H](Cc4c[nH]c5ccccc45)C(=O)N[C@H](C(=O)N[C@H](C(=O)N[C@@H](CCCNC(=N)N)C(=O)N[C@@H](CCC(N)=O)C(=O)N(C)[C@@H](CCCNC(=N)N)C(=O)N[C@@H](Cc4ccc(O)cc4)C(N)=O)[C@@H](C)O)C(C)C)c(=O)c3c2)CC1)C(=O)O [Example 26]
EC50 [1]: > 5000 nM | EC50 [2]: 0.15 nM | EC50 [3]: 129 nM | Emax [3]: 70% | EC50 [4]: 0.045 nM | EC50 [5]: > 5000 nM

CC[C@H](C)[C@H](N)C(=O)N[C@@H](CCCCNC(=O)CC[C@H](NC(=O)CC[C@H](NC(=O)CCCCCCCCCCCCCCCBr)C(=O)O)C(=O)O)C(=O)N1CCN(c2ccc3ncn(CC(=O)N[C@@H](CCCNC(=N)N)C(=O)N[C@@H](Cc4c[nH]cn4)C(=O)N[C@@H](Cc4ccc(O)cc4)C(=O)N[C@@H](CC(C)C)C(=O)N[C@@H](CC(N)=O)C(=O)N[C@@H](Cc4c[nH]c5ccccc45)C(=O)N[C@H](C(=O)N[C@H](C(=O)N[C@@H](CCCNC(=N)N)C(=O)N[C@@H](CCC(N)=O)C(=O)N(C)[C@@H](CCCNC(=N)N)C(=O)N[C@@H](Cc4ccc(O)cc4)C(N)=O)[C@@H](C)O)C(C)C)c(=O)c3c2)CC1 [Example 27]
EC50 [1]: > 5000 nM | EC50 [2]: 0.4 nM | EC50 [3]: 2540 nM | EC50 [4]: 0.23 nM | EC50 [5]: > 5000 nM

CCCCCCCCCCCCCCCC(=O)N[C@@H](CCC(=O)N[C@@H](CCC(=O)NCCCC[C@H](NC(=O)[C@@H](NC(=O)[C@@H]1CCC(=O)N1)[C@@H](C)CC)C(=O)N1CCN(c2ccc3ncn(CC(=O)N[C@@H](CCCNC(=N)N)C(=O)N[C@@H](Cc4c[nH]cn4)C(=O)N[C@@H](Cc4ccc(O)cc4)C(=O)N[C@@H](CC(C)C)C(=O)N[C@@H](CC(N)=O)C(=O)N[C@@H](Cc4c[nH]c5ccccc45)C(=O)N[C@H](C(=O)N[C@H](C(=O)N[C@@H](CCCNC(=N)N)C(=O)N[C@@H](CCC(N)=O)C(=O)N(C)[C@@H](CCCNC(=N)N)C(=O)N[C@@H](Cc4ccc(O)cc4)C(N)=O)[C@@H](C)O)C(C)C)c(=O)c3c2)CC1)C(=O)O)C(=O)O [Example 28]
EC50 [1]: > 5000 nM | EC50 [2]: 0.21 nM | EC50 [3]: 2060 nM | EC50 [4]: 0.176 nM | EC50 [5]: > 5000 nM

CCCCCCCCCCCCCCCCCCCC(=O)NCCCCCC(=O)NCCCC[C@H](NC(=O)[C@@H](N)[C@@H](C)CC)C(=O)N1CCN(c2ccc3ncn(CC(=O)N[C@@H](CCCNC(=N)N)C(=O)N[C@@H](Cc4c[nH]cn4)C(=O)N[C@@H](Cc4ccc(O)cc4)C(=O)N[C@@H](CC(C)C)C(=O)N[C@@H](CC(N)=O)C(=O)N[C@@H](Cc4c[nH]c5ccccc45)C(=O)N[C@H](C(=O)N[C@H](C(=O)N[C@@H](CCCNC(=N)N)C(=O)N[C@@H](CCC(N)=O)C(=O)N(C)[C@@H](CCCNC(=N)N)C(=O)N[C@@H](Cc4ccc(O)cc4)C(N)=O)[C@@H](C)O)C(C)C)c(=O)c3c2)CC1 [Example 30]
EC50 [1]: > 5000 nM | EC50 [2]: 0.14 nM | EC50 [3]: 306 nM | Emax [3]: 28% | EC50 [4]: 0.96 nM | EC50 [5]: > 5000 nM

CCCCCCCCCCCCCCCCCCCC(=O)N[C@@H](CCC(=O)N[C@@H](CCC(=O)NCCCC[C@H](NC(=O)[C@@H](N)[C@@H](C)CC)C(=O)N1CCN(c2ccc3ncn(CC(=O)N[C@@H](CCCNC(=N)N)C(=O)N[C@@H](Cc4c[nH]cn4)C(=O)N[C@@H](Cc4ccc(O)cc4)C(=O)N[C@@H](CC(C)C)C(=O)N[C@@H](CC(N)=O)C(=O)N[C@@H](Cc4c[nH]c5ccccc45)C(=O)N[C@H](C(=O)N[C@H](C(=O)N[C@@H](CCCNC(=N)N)C(=O)N[C@@H](CCC(N)=O)C(=O)N(C)[C@@H](CCCNC(=N)N)C(=O)N[C@@H](Cc4ccc(O)cc4)C(N)=O)[C@@H](C)O)C(C)C)c(=O)c3c2)CC1)C(=O)O)C(=O)O [Example 31]
EC50 [1]: > 5000 nM | EC50 [2]: 0.07 nM | EC50 [3]: 634 nM | Emax [3]: 60% | EC50 [4]: 0.091 nM | EC50 [5]: > 5000 nM

CCCCCCCCCCCCCCCC(=O)NCCOCCOCCOCCOCCC(=O)NCCCC[C@H](NC(=O)[C@@H](N)[C@@H](C)CC)C(=O)N1CCN(c2ccc3ncn(CC(=O)N[C@@H](CCCNC(=N)N)C(=O)N[C@@H](Cc4c[nH]cn4)C(=O)N[C@@H](Cc4ccc(O)cc4)C(=O)N[C@@H](CC(C)C)C(=O)N[C@@H](CC(N)=O)C(=O)N[C@@H](Cc4c[nH]c5ccccc45)C(=O)N[C@H](C(=O)N[C@H](C(=O)N[C@@H](CCCNC(=N)N)C(=O)N[C@@H](CCC(N)=O)C(=O)N(C)[C@@H](CCCNC(=N)N)C(=O)N[C@@H](Cc4ccc(O)cc4)C(N)=O)[C@@H](C)O)C(C)C)c(=O)c3c2)CC1 [Example 32]
EC50 [1]: > 5000 nM | EC50 [2]: 0.19 nM | EC50 [3]: 973 nM | Emax [3]: 28% | EC50 [4]: 0.26 nM | EC50 [5]: > 5000 nM

CCCCCCCCCCCCCCCCCCCC(=O)NCCOCCOCCOCCOCCC(=O)NCCCC[C@H](NC(=O)[C@@H](N)[C@@H](C)CC)C(=O)N1CCN(c2ccc3ncn(CC(=O)N[C@@H](CCCNC(=N)N)C(=O)N[C@@H](Cc4c[nH]cn4)C(=O)N[C@@H](Cc4ccc(O)cc4)C(=O)N[C@@H](CC(C)C)C(=O)N[C@@H](CC(N)=O)C(=O)N[C@@H](Cc4c[nH]c5ccccc45)C(=O)N[C@H](C(=O)N[C@H](C(=O)N[C@@H](CCCNC(=N)N)C(=O)N[C@@H](CCC(N)=O)C(=O)N(C)[C@@H](CCCNC(=N)N)C(=O)N[C@@H](Cc4ccc(O)cc4)C(N)=O)[C@@H](C)O)C(C)C)c(=O)c3c2)CC1 [Example 33]
EC50 [1]: > 5000 nM | EC50 [2]: 0.13 nM | EC50 [3]: 241 nM | Emax [3]: 53% | EC50 [4]: 1.08 nM | EC50 [5]: > 5000 nM

CCCCCCCCCCCCCCCC(=O)NCCOCCOCCOCCC(=O)NCCCC[C@H](NC(=O)[C@@H](N)[C@@H](C)CC)C(=O)N1CCN(c2ccc3ncn(CC(=O)N[C@@H](CCCNC(=N)N)C(=O)N[C@@H](Cc4c[nH]cn4)C(=O)N[C@@H](Cc4ccc(O)cc4)C(=O)N[C@@H](CC(C)C)C(=O)N[C@@H](CC(N)=O)C(=O)N[C@@H](Cc4c[nH]c5ccccc45)C(=O)N[C@H](C(=O)N[C@H](C(=O)N[C@@H](CCCNC(=N)N)C(=O)N[C@@H](CCC(N)=O)C(=O)N(C)[C@@H](CCCNC(=N)N)C(=O)N[C@@H](Cc4ccc(O)cc4)C(N)=O)[C@@H](C)O)C(C)C)c(=O)c3c2)CC1 [Example 34]
EC50 [1]: > 5000 nM | EC50 [2]: 0.1 nM | EC50 [3]: 2340 nM | Emax [3]: 80% | EC50 [4]: 0.003 nM | EC50 [5]: > 5000 nM

CCCCCCCCCCCCCCCCCCCC(=O)NCCOCCOCCOCCC(=O)NCCCC[C@H](NC(=O)[C@@H](N)[C@@H](C)CC)C(=O)N1CCN(c2ccc3ncn(CC(=O)N[C@@H](CCCNC(=N)N)C(=O)N[C@@H](Cc4c[nH]cn4)C(=O)N[C@@H](Cc4ccc(O)cc4)C(=O)N[C@@H](CC(C)C)C(=O)N[C@@H](CC(N)=O)C(=O)N[C@@H](Cc4c[nH]c5ccccc45)C(=O)N[C@H](C(=O)N[C@H](C(=O)N[C@@H](CCCNC(=N)N)C(=O)N[C@@H](CCC(N)=O)C(=O)N(C)[C@@H](CCCNC(=N)N)C(=O)N[C@@H](Cc4ccc(O)cc4)C(N)=O)[C@@H](C)O)C(C)C)c(=O)c3c2)CC1 [Example 35]
EC50 [1]: > 5000 nM | EC50 [2]: 0.11 nM | EC50 [3]: 501 nM | Emax [3]: 65% | EC50 [4]: 1.02 nM | EC50 [5]: > 5000 nM
